Legend:
SNK-6 (IL-2 2.5 ng/mL) [1] = test: percent inhibition of viability; higher = more inhibition; settings: 72 h
YT (IL-2 2.5 ng/mL) [2] = test: as above; settings: 72 h
KAI3 (IL-2 2.5 ng/mL) [3] = test: as above; settings: 72 h
[4] = tested on: normal primary NK cells, pool 1 (3 donors), resting (IL-2 0 ng/mL); test: as above; settings: 72 h
KHYG-1 (IL-2 2.5 ng/mL) [5] = test: as above; settings: 72 h
NKL (IL-2 2.5 ng/mL) [6] = test: as above; settings: 72 h
NK-YS (IL-2 2.5 ng/mL) [7] = test: as above; settings: 72 h
[8] = tested on: normal primary NK cells, pool 3 (3 donors) (IL-2 2.5 ng/mL); test: as above; settings: 72 h
DERL-7 (IL-2 2.5 ng/mL) [9] = test: as above; settings: 72 h
IMC-1 (IL-2 20 ng/mL) [10] = test: as above; settings: 72 h
[11] = tested on: normal primary NK cells, pool 1 (3 donors) (IL-2 2.5 ng/mL); test: as above; settings: 72 h
NK-92 (IL-2 2.5 ng/mL) [12] = test: as above; settings: 72 h
[13] = tested on: normal primary NK cells, pool 2 (3 donors) (IL-2 2.5 ng/mL); test: as above; settings: 72 h
[14] = tested on: normal NK cells expanded with K562-aAPC; test: drug sensitivity score (DSS) (DSS units); higher = more sensitive; extreme values may be limits of the assay; settings: 72 h; IL-2 2.5 ng/mL
Description: (§1)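 Drug sensitivity and resistance testing on K562-aAPC-expanded normal NK cells: 5 concentrations (10-fold steps over a 10,000-fold range), 72 h at 37 °C, viability by CellTiter-Glo normalised to DMSO and benzethonium chloride controls; DSS from the fitted curve.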

SNK-6 (IL-2 2.5 ng/mL) [15] = test: as above; settings: 72 h
YT (IL-2 2.5 ng/mL) [16] = test: as above; settings: 72 h
KAI3 (IL-2 2.5 ng/mL) [17] = test: as above; settings: 72 h
[18] = tested on: normal primary NK cells, pool 1 (3 donors), resting (IL-2 0 ng/mL); test: as above; settings: 72 h
KHYG-1 (IL-2 2.5 ng/mL) [19] = test: as above; settings: 72 h
NKL (IL-2 2.5 ng/mL) [20] = test: as above; settings: 72 h
NK-YS (IL-2 2.5 ng/mL) [21] = test: as above; settings: 72 h
[22] = tested on: normal primary NK cells, pool 3 (3 donors) (IL-2 2.5 ng/mL); test: as above; settings: 72 h
DERL-7 (IL-2 2.5 ng/mL) [23] = test: as above; settings: 72 h
IMC-1 (IL-2 20 ng/mL) [24] = test: as above; settings: 72 h
[25] = tested on: normal primary NK cells, pool 1 (3 donors) (IL-2 2.5 ng/mL); test: as above; settings: 72 h
NK-92 (IL-2 2.5 ng/mL) [26] = test: as above; settings: 72 h
[27] = tested on: normal primary NK cells, pool 2 (3 donors) (IL-2 2.5 ng/mL); test: as above; settings: 72 h
[28] = tested on: normal NK cells expanded with K562-aAPC; test: percent inhibition of viability; higher = more inhibition; settings: 72 h, IL-2 2.5 ng/mL
Description: as §1

COc1cc([C@@H]2c3cc4c(cc3[C@@H](O[C@@H]3O[C@@H]5CO[C@@H](C)O[C@H]5[C@H](O)[C@H]3O)[C@H]3COC(=O)[C@H]23)OCO4)cc(OC)c1O [Etoposide] (max concentration tested 10000 nM)
percent inhibition of viability [%]
Settings | 1 nM | 10 nM | 100 nM | 1000 nM | 10000 nM
DERL-7 (IL-2 2.5 ng/mL) [9] | -3.7 | 3.15 | 32.8 | 97 | 82.8
IMC-1 (IL-2 20 ng/mL) [10] | -6.15 | 1.75 | 34.8 | 97.9 | 99.5
KAI3 (IL-2 2.5 ng/mL) [3] | 5.94 | 13.2 | 41.3 | 76.4 | 78
KHYG-1 (IL-2 2.5 ng/mL) [5] | -3.98 | -9.64 | 3.44 | 87.1 | 101
NK-92 (IL-2 2.5 ng/mL) [12] | -7.31 | -6.78 | 5.02 | 67.3 | 101
NK-YS (IL-2 2.5 ng/mL) [7] | 3.6 | 4.01 | 29.1 | 77.3 | 83.9
NKL (IL-2 2.5 ng/mL) [6] | -3.26 | 4.8 | 80.7 | 94.3 | 101
SNK-6 (IL-2 2.5 ng/mL) [1] | -11.1 | 0.92 | -0.88 | 74.3 | 96.2
YT (IL-2 2.5 ng/mL) [2] | -3.45 | -8.19 | -5.67 | 44.7 | 98.2
[4] | 0.93 | 10 | 22.8 | 40 | 90.5
[8] | 0.28 | -3.78 | 10.1 | 11.7 | 48.3
[11] | -1.51 | 1.58 | 11.1 | 14.3 | 79.7
[13] | -2.19 | -0.27 | 0.34 | 8.73 | 53.7
[28] | -5.25 | -8.84 | -1.72 | 49.7 | 65.7

Settings | drug sensitivity score
DERL-7 (IL-2 2.5 ng/mL) [23] | 21.9
IMC-1 (IL-2 20 ng/mL) [24] | 22.2
KAI3 (IL-2 2.5 ng/mL) [17] | 19.3
KHYG-1 (IL-2 2.5 ng/mL) [19] | 16.2
NK-92 (IL-2 2.5 ng/mL) [26] | 13.7
NK-YS (IL-2 2.5 ng/mL) [21] | 17.7
NKL (IL-2 2.5 ng/mL) [20] | 28
SNK-6 (IL-2 2.5 ng/mL) [15] | 13.8
YT (IL-2 2.5 ng/mL) [16] | 11.1
[14] | 9.42
[18] | 11.3
[22] | 4.07
[25] | 6.78
[27] | 4.34
